Source: ChEMBL document CHEMBL4627372, “Spiroseoflosterol, a Rearranged Ergostane-Steroid from the Fruiting Bodies of Butyriboletus roseoflavus” (J Nat Prod, 2020)
The source made the active and inactive calls. The rule behind the calls is not given here.

How the values were obtained:
HepG2 [1] = assay: Cytotoxicity against human HepG2 cells at 10 uM after 48 hrs by MTT assay; format: functional, cell-based
L02 = assay: Cytotoxicity against human LO2 cells after 48 hrs by MTT assay; format: cell-based; settings: L02, 48 h
HepG2 [2] = assay: Cytotoxicity against human HepG2 cells after 48 hrs by MTT assay; format: functional, cell-based; settings: HepG2, 48 h
[3] = Selectivity ratio of IC50 for human LO2 cells to IC50 for human HepG2 cells; format: toxicity; settings: LO2 cells versus HepG2 cells, read-out: Ratio IC50
[4] = Cytotoxicity against human Huh7S1 cells after 48 hrs by MTT assay; format: functional, cell-based
[5] = Selectivity ratio of IC50 for human LO2 cells to IC50 for human Huh7S1 cells; format: toxicity; settings: LO2 cells versus Huh7S1 cells, read-out: Ratio IC50

**Q.** For `CC(C)[C@@H](C)/C=C/[C@@H](C)[C@H]1CCC2=C3C=C[C@H]4C[C@@H](O)CC[C@]4(C)[C@H]3CC[C@@]21C`, which Activity (HepG2 [1]) is on record?
**A.** Its Activity is “inactive”.

**Q.** Which IC50 (L02) does the source give for `CC(C)[C@@H](C)/C=C/[C@@H](C)[C@H]1CC[C@H]2C(=O)[C@@]3(CC[C@]12C)[C@@H](O)C[C@H]1C[C@@H](O)CC[C@@]13C` here?
**A.** Its IC50 is 22.8 µM.

**Q.** And the IC50 (HepG2 [2])?
**A.** Its IC50 is 9.1 µM.

**Q.** And the selectivity ratio [3]?
**A.** The selectivity ratio was 2.5.

**Q.** And the IC50 [4]?
**A.** The IC50 was 6.2 µM.

**Q.** What about the selectivity ratio [5] of the same compound?
**A.** The selectivity ratio was 3.7.

**Q.** Which IC50 (L02) does the source give for `CNC(=O)c1cc(Oc2ccc(NC(=O)Nc3ccc(Cl)c(C(F)(F)F)c3)cc2)ccn1` [SORAFENIB] here?
**A.** Its IC50 is 9.1 µM.

**Q.** And the IC50 (HepG2 [2])?
**A.** The IC50 was 5.5 µM.

**Q.** What about the selectivity ratio [3] of the same compound?
**A.** The selectivity ratio was 1.6.
